Reference: patent publication US20100081679A1, “DIAMINOPYRIMIDINES AS FUNGICIDES” (Bayer CropScience AG, priority 2007, published 2010)
Marks after values point to notes of the source that are not given here.

Assay: logP determination via retention times, calibrated with unbranched alkan-2-ones
Format: physicochemical
Conditions: HPLC on reversed-phase C 18, EEC Directive 79/831 Annex V.A8; method *: 40° C., 0.1% aqueous formic acid and acetonitrile, linear gradient 10% to 95% acetonitrile

logP	Compound
1.97*	CCC(=O)Nc1cc(Nc2ncc(Br)c(NCC3CC3)n2)ccc1O [compound 494]
1.47*	OCc1cccc(Nc2ncc(Cl)c(NCC3CC3)n2)c1 [compound 560]
2.91*	FC(F)Sc1ccc(Nc2ncc(Cl)c(NCC3CC3)n2)cc1 [compound 559]
0.93*	Brc1cnc(Nc2ccc(-n3ccnc3)cc2)nc1NC1CC1 [compound 501]
1.51*	Oc1ccc(Nc2ncc(Br)c(NCC3CC3)n2)c(F)c1 [compound 478]
1.73*	CCN(C(C)=O)c1ccc(Nc2ncc(Cl)c(NCC3CC3)n2)cc1 [compound 506]
1.63*	CN(C=O)c1ccc(Nc2ncc(Br)c(NCC3CC3)n2)cc1 [compound 490]
1.59*	CC(=O)N1CCc2cc(Nc3ncc(Cl)c(NCC4CC4)n3)ccc21 [compound 518]
1.8*	CCOC(=O)Nc1ccc(Nc2ncc(Cl)c(NCC3CC3)n2)cc1 [compound 543]

Same assay, conditions: HPLC on reversed-phase C 18, method **: 43° C.; 0.1% aqueous phosphoric acid and acetonitrile; linear gradient 10% to 95% acetonitrile

logP	Compound
2.09**	CN(CC1CC1)c1nc(Nc2ccc(N3CCCC3=O)cc2)ncc1Cl [compound 966]
1.7**	CN(c1nc(Nc2ccccc2)ncc1Br)C1CC1 [compound 928]

Same assay, conditions: HPLC on reversed-phase C18, method *: 40° C., 0.1% aqueous formic acid and acetonitrile, linear gradient 10% to 95% acetonitrile

logP	Compound
2.12*	CC(C)(C)OC(=O)Nc1ccc(Nc2ncc(Cl)c(NC3CC3)n2)cc1 [Example 100]
2.95*	FC(F)(F)Oc1ccc(Nc2ncc(Cl)c(NCC3CC3)n2)cc1 [compound 688]
1.99*	COc1ccccc1Nc1ncc(Cl)c(NCC2CC2)n1 [compound 687]
1.73*	COCc1cccc(Nc2ncc(C(F)F)c(NCC3CC3)n2)c1 [compound 772]
1.85*	CCC(=O)Nc1cc(Nc2ncc(Br)c(NC3CC3)n2)ccc1O [compound 767]
1.93*	Cc1cccc(Nc2ncc(Cl)c(NC3CC3)n2)c1 [compound 731]
1.58*	O=C1C=CC(=O)N1c1ccc(Nc2ncc(Cl)c(NC3CC3)n2)cc1 [compound 156]
2.26*	N#Cc1cccc(Nc2ncc(Cl)c(NCC3CC3)n2)c1 [compound 685]
4.13*	FC(F)(F)Oc1ccc(Nc2ncc(Br)c(NC3CC3)n2)cc1Cl [compound 753]
2.37*	C=CCOc1cccc(Nc2ncc(Cl)c(NC3CC3)n2)c1 [compound 715]
2.18*	CSc1ccccc1Nc1ncc(Cl)c(NC2CC2)n1 [compound 880]
1.59*	O=C(c1ccc(Nc2ncc(Cl)c(NCC3CC3)n2)cc1)N1CCOCC1 [compound 696]
3.29*	COC(C)c1cccc(Nc2ncc(C(F)(F)F)c(NCC3CC3)n2)c1 (racemic) [compound 962]
1.23*	O=CNc1cccc(Nc2ncc(Br)c(NC3CC3)n2)c1 [compound 716]
3.1*	COC(=O)c1ccc(Nc2ncc(Cl)c(NCC3CC3)n2)cc1Cl [compound 691]

Same assay, conditions: HPLC on reversed-phase C18, method *: 40° C.; mobile phase 0.1% aqueous formic acid and acetonitrile; linear gradient 10% to 95% acetonitrile

logP	Compound
2.77*	Clc1cccc(Nc2ncc(Br)c(NC3CC3)n2)c1 [compound 359]
1.85*	CC(=O)c1cccc(Nc2ncc(Br)c(NC3CC3)n2)c1 [compound 358]
1.26*	Oc1ccc(Nc2ncc(Cl)c(NC3CC3)n2)c(F)c1 [compound 294]
3.06*	COc1cc(Nc2ncc(Cl)c(NC3(c4ccccc4Cl)CC3)n2)cc(OC)c1OC [compound 320]
2.11*	CC(C)OC(=O)Nc1cccc(Nc2ncc(Br)c(NC3CC3)n2)c1 [compound 331]

Same assay, conditions: HPLC on reversed-phase C18 column (EEC Directive 79/831 Annex V.A8); method *: 40° C.; 0.1% aqueous formic acid and acetonitrile; linear gradient 10% to 95% acetonitrile

logP	Compound
2.6*	CC(C)(C)C(=O)Nc1ccc(Nc2ncc(C(F)(F)F)c(NCC3CC3)n2)cc1 [compound 201]
1.73*	COCC(C)Oc1ccc(Nc2ncc(Cl)c(NC3CC3)n2)cc1 (centres unmarked) [compound 188]

Same assay, conditions: HPLC reversed-phase C 18, EEC Directive 79/831 Annex V.A8; method **: 43° C., 0.1% aqueous phosphoric acid and acetonitrile, linear gradient 10% to 95% acetonitrile

logP	Compound
1.38**	CN1CCN(c2ccc(Nc3ncc(Cl)c(NC4CC4)n3)cc2C(F)(F)F)CC1 [compound 846]

Same assay, conditions: HPLC reversed-phase C 18, EEC Directive 79/831 Annex V.A8; method *: 40° C., 0.1% aqueous formic acid and acetonitrile, linear gradient 10% to 95% acetonitrile

logP	Compound
1.09*	O=C(O)CCc1cccc(Nc2ncc(Cl)c(NC3CC3)n2)c1 [compound 795]
1.59*	N#CCc1ccc(Nc2ncc(Cl)c(NC3CC3)n2)cc1 [compound 832]
2.08*	COC(C)c1cccc(Nc2ncc(Br)c(NC3CC3)n2)c1 (centres unmarked) [compound 805]
1.81*	N#CCc1cccc(Nc2ncc(Cl)c(NCC3CC3)n2)c1 [compound 821]
1.97*	COc1cccc(Nc2ncc(I)c(NC3CC3)n2)c1 [compound 855]
2.6*	ClC1(Cl)CC1CNc1nc(Nc2ccccc2)ncc1Br (centres unmarked) [compound 808]
2.46*	Clc1cnc(Nc2ccccc2)nc1NCC1CC1(Cl)Cl (centres unmarked) [compound 800]
2.37*	CCc1cccc(Nc2ncc(Cl)c(NCC3CC3)n2)c1 [compound 776]
2.88*	Clc1cnc(Nc2ccccc2)nc1NC1(COc2ccccc2)CC1 [compound 801]
2.52*	CSC(C)c1cccc(Nc2ncc(Cl)c(NC3CC3)n2)c1 (centres unmarked) [compound 807]
1.76*	N#CCc1cc(Nc2ncc(Cl)c(NC3CC3)n2)ccc1F [compound 813]
1.16*	O=C1CCCCN1c1cccc(Nc2ncc(F)c(NC3CC3)n2)c1 [compound 804]
1.64*	CC(=O)Cc1cccc(Nc2ncc(Br)c(NC3CC3)n2)c1 [compound 782]

Same assay, conditions: method **: HPLC reversed-phase C 18, 43° C., 0.1% aqueous phosphoric acid and acetonitrile, linear gradient 10% to 95% acetonitrile

logP	Compound
2.09**	COc1cc(Nc2ncc(Cl)c(NCC3CC3)n2)cc(OC)c1 [compound 11]
1.9**	O=C1CCCN1c1cc(Nc2ncc(Cl)c(NC3CC3)n2)ccc1Cl [compound 368]

Same assay, conditions: method **: HPLC reversed-phase C 18, temperature 43° C.; mobile phase 0.1% aqueous phosphoric acid and acetonitrile; linear gradient 10% to 95% acetonitrile

logP	Compound
1.78**	CNC(=O)c1cccc(Nc2ncc(C(F)(F)F)c(NC3CC3)n2)c1 [compound 652]

Same assay, conditions: method **: HPLC, reversed-phase C 18, 43° C., mobile phase 0.1% aqueous phosphoric acid and acetonitrile, linear gradient from 10% to 95% acetonitrile

logP	Compound
4.07**	COCc1cccc(Nc2ncc(Cl)c(N(Cc3ccc(OC)cc3)C3CC3)n2)c1 [compound 1044]
1.54**	CC(=O)NS(=O)(=O)c1ccc(Nc2ncc(Cl)c(NC3CC3)n2)cc1 [compound 1021]
3.54**	C=CCOc1cccc(Nc2ncc(C(F)(F)F)c(NC3CC3)n2)c1 [compound 1024]

Same assay, conditions: method *: HPLC reversed-phase C18, 40° C., 0.1% aqueous formic acid and acetonitrile, linear gradient 10% to 95% acetonitrile

logP	Compound
1.66*;	CN(C)C(=O)c1ccc(Nc2ncc(Br)c(NCC3CC3)n2)cc1 [compound 452]
1.62*	CC(=O)N(c1ccc(Nc2ncc(Cl)c(NC3CC3)n2)cc1)C1CC1 [Example 63]
2.51*	CN(C)S(=O)(=O)c1ccc(Nc2ncc(Br)c(NCC3CC3)n2)cc1 [compound 449]
1.63*	CC(C)C(=O)Nc1cccc(Nc2ncc(Cl)c(NC3CC3)n2)c1 [Example 86]
1.82*	Ic1cnc(Nc2ccccc2)nc1NC1CC1 [compound 364]
1.45*	O=C1CCCN1Cc1cccc(Nc2ncc(Cl)c(NC3CC3)n2)c1 [compound 433]
3.33*	CCCSc1cccc(Nc2ncc(Cl)c(NC3CC3)n2)c1 [compound 437]
2.3*	CC(C)(C)C(=O)Cc1ccc(Nc2ncc(Cl)c(NC3CC3)n2)cc1 [Example 59]
1.28*	Clc1cnc(Nc2ccccc2)nc1NC1CC1 [Example 70]
1.81*	CC(C)(C)C(=O)Nc1ccc(Nc2ncc(Cl)c(NC3CC3)n2)cc1 [Example 72]
1.12*	Oc1ccc(Nc2ncc(Cl)c(NC3CC3)n2)cc1 [Example 75]
1.59*	O=S(=O)(Cc1cccc(Nc2ncc(Cl)c(NC3CC3)n2)c1)NC1CC1 [compound 372]
1.44*	Cc1ccc(S(=O)(=O)O)cc1.O=C1CCCN1c1ccc(Nc2ncc(Cl)c(NC3CC3)n2)cc1 [Example 89]

Same assay, conditions: method *: HPLC reversed-phase C 18, temperature 40° C.; mobile phase 0.1% aqueous formic acid and acetonitrile; linear gradient 10% to 95% acetonitrile

logP	Compound
1.91*	O=C(NCC(F)(F)F)c1cccc(Nc2ncc(Br)c(NC3CC3)n2)c1 [compound 622]
1.78*;	CNC(=O)c1cccc(Nc2ncc(C(F)(F)F)c(NC3CC3)n2)c1 [compound 652]
1.05*	CNC(=O)c1cccc(Nc2ncc(F)c(NC3CC3)n2)c1 [compound 585]
1.28*	CNC(=O)Nc1cccc(Nc2ncc(F)c(NC3CC3)n2)c1 [compound 597]
4.08*	CSc1ccc(Nc2ncc(C(F)(F)F)c(NC3CC3)n2)cc1Cl [compound 646]
3.36*	C#Cc1cccc(Nc2ncc(C(F)(F)F)c(NC3CC3)n2)c1 [compound 627]
2.06*	COC(=O)Nc1cccc(Nc2ncc(C#N)c(NC3CC3)n2)c1 [compound 612]
1.68*	CN(C)S(=O)(=O)c1ccc(Nc2ncc(F)c(NC3CC3)n2)cc1 [compound 578]

Same assay, conditions: method *: HPLC, reversed-phase C 18, 40° C., mobile phase 0.1% aqueous formic acid and acetonitrile, linear gradient from 10% to 95% acetonitrile

logP	Compound
1.46*	COCCN(C)C(=O)c1cccc(Nc2ncc(Cl)c(NC3CC3)n2)c1 [compound 1064]
2.46*	COC(=O)c1cc(Nc2ncc(Cl)c(NC3CC3)n2)cc(C(=O)OC)c1 [compound 1001]
2.78*	COCCOc1cccc(Nc2ncc(C(F)(F)F)c(NC3CC3)n2)c1 [compound 1041]
2.11*	Clc1cnc(Nc2ccc3c(c2)CCC3)nc1NC1CC1 [compound 1000]
2.13*	CN(c1nc(Nc2cccc(N3CCOC3=O)c2)ncc1Cl)C1CC1 [compound 1055]

Same assay, conditions: pH 2.3; read-out: logP (pH2.3)

chromatographic logP	Compound
2.09	CCOC1(Nc2nc(Cl)ncc2Cl)CC1 [2,5-Dichloro-N-(1-ethoxycyclopropyl)pyrimidine-4-amine]
